Experimental data reported in PubChem BioAssay AID1259407 (Chemical Carcinogenesis Research Information System (CCRIS), 2018).
The source made the active and inactive calls. How the calls were made is not given here.

Tested on: CCRIS mutagenicity, Ames/micronucleus/aberration tests
Experiment: CCRIS mutagenicity studies
[1] = Test System: AMES SALMONELLA TYPHIMURIUM, Strain/Indicator: TA97, Metabolic Activation: NONE, Method: PREINCUBATION
[2] = Test System: AMES SALMONELLA TYPHIMURIUM, Strain/Indicator: TA98, Metabolic Activation: NONE, Method: PREINCUBATION
[3] = Test System: AMES SALMONELLA TYPHIMURIUM, Strain/Indicator: TA100, Metabolic Activation: NONE, Method: PREINCUBATION
[4] = Test System: AMES SALMONELLA TYPHIMURIUM, Strain/Indicator: TA1535, Metabolic Activation: NONE, Method: PREINCUBATION
[5] = Test System: AMES SALMONELLA TYPHIMURIUM, Strain/Indicator: TA100, Metabolic Activation: NONE, Method: STANDARD PLATE
[6] = Test System: AMES SALMONELLA TYPHIMURIUM, Strain/Indicator: TA100, Metabolic Activation: RAT, LIVER, S-9, AROCLOR 1254, Method: STANDARD PLATE
[7] = Test System: AMES SALMONELLA TYPHIMURIUM, Strain/Indicator: TA98, Metabolic Activation: RAT, LIVER, S-9, AROCLOR 1254, Method: STANDARD PLATE
[8] = Test System: AMES SALMONELLA TYPHIMURIUM, Strain/Indicator: TA98, Metabolic Activation: NONE, Method: STANDARD PLATE
[9] = Test System: AMES SALMONELLA TYPHIMURIUM, Strain/Indicator: TA1535, Metabolic Activation: NONE, Method: STANDARD PLATE
[10] = Test System: AMES SALMONELLA TYPHIMURIUM, Strain/Indicator: TA1538, Metabolic Activation: NONE, Method: STANDARD PLATE

Which mutagenic call (Test System: AMES SALMONELLA TYPHIMURIUM, Strain/Indicator: TA97, Metabolic Activation: HAMSTER, LIVER, S-9, AROCLOR 1254 (10 OR 30%), Method: PREINCUBATION) does the source give for `Cc1cc(=O)[nH]c(=S)[nH]1` here?
The mutagenic call was “inactive; negative”.

And the mutagenic call [1]?
The mutagenic call was “inactive; negative”.

And the mutagenic call (Test System: AMES SALMONELLA TYPHIMURIUM, Strain/Indicator: TA97, Metabolic Activation: RAT, LIVER, S-9, AROCLOR 1254 (10 OR 30%), Method: PREINCUBATION)?
Its mutagenic call is “inactive; negative”.

And the mutagenic call (Test System: AMES SALMONELLA TYPHIMURIUM, Strain/Indicator: TA98, Metabolic Activation: HAMSTER, LIVER, S-9, AROCLOR 1254 (10 OR 30%), Method: PREINCUBATION)?
The mutagenic call was “inactive; negative”.

What about the mutagenic call [2] of the same compound?
The mutagenic call was “inactive; negative”.

What about the mutagenic call (Test System: AMES SALMONELLA TYPHIMURIUM, Strain/Indicator: TA98, Metabolic Activation: RAT, LIVER, S-9, AROCLOR 1254 (10 OR 30%), Method: PREINCUBATION) of the same compound?
The mutagenic call was “inactive; negative”.

And the mutagenic call (Test System: AMES SALMONELLA TYPHIMURIUM, Strain/Indicator: TA100, Metabolic Activation: HAMSTER, LIVER, S-9, AROCLOR 1254 (10%), Method: PREINCUBATION)?
Its mutagenic call is “inactive; negative”.

What about the mutagenic call (Test System: AMES SALMONELLA TYPHIMURIUM, Strain/Indicator: TA100, Metabolic Activation: HAMSTER, LIVER, S-9, AROCLOR 1254 (30%), Method: PREINCUBATION) of the same compound?
Its mutagenic call is “inactive; negative”.

What about the mutagenic call [3] of the same compound?
The mutagenic call was “inactive; negative”.

What about the mutagenic call (Test System: AMES SALMONELLA TYPHIMURIUM, Strain/Indicator: TA100, Metabolic Activation: RAT, LIVER, S-9, AROCLOR 1254 (10%), Method: PREINCUBATION) of the same compound?
The mutagenic call was “inactive; negative”.

What about the mutagenic call (Test System: AMES SALMONELLA TYPHIMURIUM, Strain/Indicator: TA100, Metabolic Activation: RAT, LIVER, S-9, AROCLOR 1254 (30%), Method: PREINCUBATION) of the same compound?
Its mutagenic call is “inactive; negative”.

What about the mutagenic call (Test System: AMES SALMONELLA TYPHIMURIUM, Strain/Indicator: TA1535, Metabolic Activation: HAMSTER, LIVER, S-9, AROCLOR 1254 (10 OR 30%), Method: PREINCUBATION) of the same compound?
Its mutagenic call is “inactive; negative”.

And the mutagenic call [4]?
The mutagenic call was “inactive; negative”.

And the mutagenic call (Test System: AMES SALMONELLA TYPHIMURIUM, Strain/Indicator: TA1535, Metabolic Activation: RAT, LIVER, S-9, AROCLOR 1254 (10 OR 30%), Method: PREINCUBATION)?
Its mutagenic call is “inactive; negative”.

For `Oc1ccc(-c2ccc(O)cc2)cc1`, which mutagenic call [1] is on record?
Its mutagenic call is “inactive; negative”.

What about the mutagenic call (Test System: AMES SALMONELLA TYPHIMURIUM, Strain/Indicator: TA97, Metabolic Activation: RAT, LIVER, S-9, AROCLOR 1254, Method: PREINCUBATION) of the same compound?
The mutagenic call was “inactive; negative”.

What about the mutagenic call [2] of the same compound?
Its mutagenic call is “inactive; negative”.

What about the mutagenic call (Test System: AMES SALMONELLA TYPHIMURIUM, Strain/Indicator: TA98, Metabolic Activation: RAT, LIVER, S-9, AROCLOR 1254, Method: PREINCUBATION) of the same compound?
Its mutagenic call is “inactive; negative”.

And the mutagenic call [3]?
Its mutagenic call is “inactive; negative”.

What about the mutagenic call (Test System: AMES SALMONELLA TYPHIMURIUM, Strain/Indicator: TA100, Metabolic Activation: RAT, LIVER, S-9, AROCLOR 1254, Method: PREINCUBATION) of the same compound?
Its mutagenic call is “inactive; negative”.

What about the mutagenic call (Test System: AMES SALMONELLA TYPHIMURIUM, Strain/Indicator: TA102, Metabolic Activation: NONE, Method: PREINCUBATION) of the same compound?
The mutagenic call was “inactive; negative”.

What about the mutagenic call (Test System: AMES SALMONELLA TYPHIMURIUM, Strain/Indicator: TA102, Metabolic Activation: RAT, LIVER, S-9, AROCLOR 1254, Method: PREINCUBATION) of the same compound?
Its mutagenic call is “inactive; negative”.

What about the mutagenic call (Test System: AMES SALMONELLA TYPHIMURIUM, Strain/Indicator: TA104, Metabolic Activation: NONE, Method: PREINCUBATION) of the same compound?
The mutagenic call was “inactive; negative”.

What about the mutagenic call (Test System: AMES SALMONELLA TYPHIMURIUM, Strain/Indicator: TA104, Metabolic Activation: RAT, LIVER, S-9, AROCLOR 1254, Method: PREINCUBATION) of the same compound?
Its mutagenic call is “inactive; negative”.

And the mutagenic call [4]?
The mutagenic call was “inactive; negative”.

And the mutagenic call (Test System: AMES SALMONELLA TYPHIMURIUM, Strain/Indicator: TA1535, Metabolic Activation: RAT, LIVER, S-9, AROCLOR 1254, Method: PREINCUBATION)?
The mutagenic call was “inactive; negative”.

What about the mutagenic call (Test System: CHINESE HAMSTER V-79, Strain/Indicator: V-79/6-THIOGUANINE, Metabolic Activation: NONE) of the same compound?
Its mutagenic call is “inactive; negative”.

For `Nc1ccc(-c2cc(Cl)c(N)c(Cl)c2)cc1Cl`, which mutagenic call (Test System: AMES SALMONELLA TYPHIMURIUM, Strain/Indicator: TA98/1,8-DNP6, Metabolic Activation: HAMSTER, LIVER, S-9, Method: PREINCUBATION) is on record?
Its mutagenic call is “active; positive”.

And the mutagenic call (Test System: AMES SALMONELLA TYPHIMURIUM, Strain/Indicator: TA98, Metabolic Activation: HAMSTER, LIVER, S-9, Method: PREINCUBATION)?
Its mutagenic call is “active; positive”.

And the mutagenic call [2]?
The mutagenic call was “active; positive”.

What about the mutagenic call (Test System: AMES SALMONELLA TYPHIMURIUM, Strain/Indicator: TA100, Metabolic Activation: HAMSTER, LIVER, S-9, Method: PREINCUBATION) of the same compound?
Its mutagenic call is “active; positive”.

With `Cc1cccc2c1ccc1cc(C(C)C)ccc12` as the compound, how does the mutagenic call [5] read?
The mutagenic call was “inactive; negative”.

And the mutagenic call [6]?
The mutagenic call was “inactive; negative”.

What does the source list for `O=Nc1ccc(NNc2ccccc2)cc1`?
mutagenic call [7]: active; positive; mutagenic call [6]: active; positive

Which mutagenic call (Test System: AMES SALMONELLA TYPHIMURIUM, Strain/Indicator: TA97A, Metabolic Activation: NONE, Method: STANDARD PLATE) does the source give for `NCCc1c[nH]c2ccccc12` here?
The mutagenic call was “inactive; negative”.

What about the mutagenic call (Test System: AMES SALMONELLA TYPHIMURIUM, Strain/Indicator: TA97A, Metabolic Activation: RAT LIVER S-9, PHENOBARBITOL/BETA-NAPHTHOFLAVONE, Method: STANDARD PLATE) of the same compound?
Its mutagenic call is “inactive; negative”.

What about the mutagenic call [8] of the same compound?
The mutagenic call was “inactive; negative”.

And the mutagenic call (Test System: AMES SALMONELLA TYPHIMURIUM, Strain/Indicator: TA98, Metabolic Activation: RAT LIVER S-9, PHENOBARBITOL/BETA-NAPHTHOFLAVONE, Method: STANDARD PLATE)?
Its mutagenic call is “inactive; negative”.

What about the mutagenic call [3] of the same compound?
Its mutagenic call is “inactive; negative”.

What about the mutagenic call [5] of the same compound?
Its mutagenic call is “inactive; negative”.

What about the mutagenic call (Test System: AMES SALMONELLA TYPHIMURIUM, Strain/Indicator: TA100, Metabolic Activation: RAT LIVER S-9, PHENOBARBITOL/BETA-NAPHTHOFLAVONE, Method: STANDARD PLATE) of the same compound?
The mutagenic call was “inactive; negative”.

And the mutagenic call [9]?
Its mutagenic call is “inactive; negative”.

What about the mutagenic call (Test System: AMES SALMONELLA TYPHIMURIUM, Strain/Indicator: TA1535, Metabolic Activation: RAT LIVER S-9, PHENOBARBITOL/BETA-NAPHTHOFLAVONE, Method: STANDARD PLATE) of the same compound?
The mutagenic call was “inactive; negative”.

What about the mutagenic call (Test System: E.COLI, Strain/Indicator: WP2/UVRA, Metabolic Activation: NONE, Method: STANDARD PLATE) of the same compound?
Its mutagenic call is “inactive; negative”.

What about the mutagenic call (Test System: E.COLI, Strain/Indicator: WP2/UVRA, Metabolic Activation: RAT LIVER S-9, PHENOBARBITOL/BETA-NAPHTHOFLAVONE, Method: STANDARD PLATE) of the same compound?
Its mutagenic call is “inactive; negative”.

For `CCCCC(CC)COC(=O)c1ccc(C(=O)O)cc1` (stereo not given), which mutagenic call [8] is on record?
The mutagenic call was “inactive; negative”.

What about the mutagenic call [7] of the same compound?
Its mutagenic call is “inactive; negative”.

And the mutagenic call [5]?
The mutagenic call was “inactive; negative”.

What about the mutagenic call [6] of the same compound?
Its mutagenic call is “inactive; negative”.

What about the mutagenic call [9] of the same compound?
The mutagenic call was “inactive; negative”.

What about the mutagenic call (Test System: AMES SALMONELLA TYPHIMURIUM, Strain/Indicator: TA1535, Metabolic Activation: RAT, LIVER, S-9, AROCLOR 1254, Method: STANDARD PLATE) of the same compound?
Its mutagenic call is “inactive; negative”.

What about the mutagenic call (Test System: AMES SALMONELLA TYPHIMURIUM, Strain/Indicator: TA1537, Metabolic Activation: NONE, Method: STANDARD PLATE) of the same compound?
Its mutagenic call is “inactive; negative”.

And the mutagenic call (Test System: AMES SALMONELLA TYPHIMURIUM, Strain/Indicator: TA1537, Metabolic Activation: RAT, LIVER, S-9, AROCLOR 1254, Method: STANDARD PLATE)?
The mutagenic call was “inactive; negative”.

And the mutagenic call [10]?
Its mutagenic call is “inactive; negative”.

And the mutagenic call (Test System: AMES SALMONELLA TYPHIMURIUM, Strain/Indicator: TA1538, Metabolic Activation: RAT, LIVER, S-9, AROCLOR 1254, Method: STANDARD PLATE)?
The mutagenic call was “inactive; negative”.

Which results are given for `COc1ccc(N=Nc2ccc(N(C)C)cc2)cc1`?
mutagenic call [8]: active; positive; mutagenic call (Test System: AMES SALMONELLA TYPHIMURIUM, Strain/Indicator: TA98, Metabolic Activation: RAT LIVER S-9, AROCLOR 1254, Method: STANDARD PLATE): active; positive; mutagenic call [10]: active; positive; mutagenic call (Test System: AMES SALMONELLA TYPHIMURIUM, Strain/Indicator: TA1538, Metabolic Activation: RAT LIVER S-9, AROCLOR 1254, Method: STANDARD PLATE): active; positive
